Patent publication US4296112A, “Cephalosporins” (Mitsui Toatsu Chemicals, Inc., priority 1979, dated 1981)

Tests used:
[1] = test system: Bacillus cereus (IAM 1792); test: MIC, agar plate dilution (Referential Example 1, Table 1); type: cell-based; conditions: IAM1792, HIA medium plate, 37° C., 18 hours, read-out: Minimum growth inhibitory concentration (MIC)
Description: (§1) The antibacterial activities of the cephalosporins of this invention were measured using the sodium salts of the compounds obtained in Synthesis Examples 1 and 2. The procedure and the results are shown in Referential Example 1.
(§2) Carbenicillin sodium salt (CB-PC) and cephazoline sodum salt (CEZ) were used as controls.
(§3) The antibacterial activities of the test compounds against various Gram-positive and Gram-negative bacteria were determined in a customary manner by the minimum growth inhibitory concentration method (MIC method).
(§4) The experimental procedure was as follows:
(§5) A commercially available heart infusion agar medium (to be abbreviated HIA medium) was used as an assay medium, and a commercially available trypto-soy bouillon medium (to be abbreviated TSB) was used as a medium for the growth of test bacterial strains.
(§6) The test compound was diluted with the melted HIA medium to 100 μg/ml as a maximum concentration, and then serially diluted double. The dilutions were poured into sterilized Petri dishes respectively and allowed to cool and solidify to prepare plates containing the test compound.
(§7) The test bacterial strain was cultivated at 37° C. for 18 to 24 hours in the TSB medium. The culture broth was diluted to 50 to 500 times with a freshly prepared TSB culture medium, and one platinum loopful of the dilution was inoculated in each of the plates containing the test compound.

[2] = test system: Citrobacter freundii (F-34); test: as above; type: cell-based; conditions: HIA medium plate, 37° C., 18 hours, read-out: Minimum growth inhibitory concentration (MIC)
Description: as §1, §2, §3, §4, §5, §6, §7

[3] = test system: Enterobacter aerogenes (IFO 3320); test: as above; type: cell-based; conditions: Klebsiella aerogenes, IFO3320, 18 h, read-out: Minimum growth inhibitory concentration (MIC)
Description: as §1, §2, §3, §4, §5, §6, §7

[4] = test system: Enterobacter cloacae (D-49); test: as above; type: cell-based; conditions: HIA medium plate, 37° C., 18 hours, read-out: Minimum growth inhibitory concentration (MIC)
Description: as §1, §2, §3, §4, §5, §6, §7

[5] = test system: Escherichia coli (14H114); test: as above; type: cell-based; conditions: HIA medium plate, 37° C., 18 hours, read-out: Minimum growth inhibitory concentration (MIC)
Description: as §1, §2, §3, §4, §5, §6, §7

Escherichia coli (26RO3) = test: as above; type: cell-based; conditions: HIA medium plate, 37° C., 18 hours, read-out: Minimum growth inhibitory concentration (MIC)
Description: as §1, §2, §3, §4, §5, §6, §7

Escherichia coli (K-12) = test: as above; type: cell-based; conditions: HIA medium plate, 37° C., 18 hours, read-out: Minimum growth inhibitory concentration (MIC)
Description: as §1, §2, §3, §4, §5, §6, §7

Escherichia coli (NIHJ) = test: as above; type: cell-based; conditions: HIA medium plate, 37° C., 18 hours, read-out: Minimum growth inhibitory concentration (MIC)
Description: as §1, §2, §3, §4, §5, §6, §7

[6] = test system: Klebsiella pneumonia (F-5089); test: as above; type: cell-based; conditions: Klebsiella pneumoniae; HIA medium plate, 37° C., 18 hours; read-out: Minimum growth inhibitory concentration (MIC)
Description: as §1, §2, §3, §4, §5, §6, §7

[7] = test system: Klebsiella pneumoniae (ATCC 10031); test: as above; type: cell-based; conditions: ATCC10031, HIA medium plate, 37° C., 18 hours, read-out: Minimum growth inhibitory concentration (MIC)
Description: as §1, §2, §3, §4, §5, §6, §7

[8] = test system: Klebsiella pneumoniae (B-172); test: as above; type: cell-based; conditions: HIA medium plate, 37° C., 18 hours, read-out: Minimum growth inhibitory concentration (MIC)
Description: as §1, §2, §3, §4, §5, §6, §7

[9] = test system: Klebsiella pneumoniae (Horino); test: as above; type: cell-based; conditions: HIA medium plate, 37° C., 18 hours, read-out: Minimum growth inhibitory concentration (MIC)
Description: as §1, §2, §3, §4, §5, §6, §7

Proteus morganii (C-39) = test: as above; type: cell-based; conditions: Morganella morganii; HIA medium plate, 37° C., 18 hours; read-out: Minimum growth inhibitory concentration (MIC)
Description: as §1, §2, §3, §4, §5, §6, §7

Proteus rettgeri (T-2) = test: as above; type: cell-based; conditions: Providencia rettgeri; HIA medium plate, 37° C., 18 hours; read-out: Minimum growth inhibitory concentration (MIC)
Description: as §1, §2, §3, §4, §5, §6, §7

Proteus vulgaris (OX-19) = test: as above; type: cell-based; conditions: HIA medium plate, 37° C., 18 hours, read-out: Minimum growth inhibitory concentration (MIC)
Description: as §1, §2, §3, §4, §5, §6, §7

[10] = test system: Pseudomonas aeruginosa (395); test: as above; type: cell-based; conditions: HIA medium plate, 37° C., 18 hours, read-out: Minimum growth inhibitory concentration (MIC)
Description: as §1, §2, §3, §4, §5, §6, §7

[11] = test system: Pseudomonas aeruginosa (718); test: as above; type: cell-based; conditions: HIA medium plate, 37° C., 18 hours, read-out: Minimum growth inhibitory concentration (MIC)
Description: as §1, §2, §3, §4, §5, §6, §7

[12] = test system: Pseudomonas aeruginosa (ATCC 10145); test: as above; type: cell-based; conditions: ATCC10145, HIA medium plate, 37° C., 18 hours, read-out: Minimum growth inhibitory concentration (MIC)
Description: as §1, §2, §3, §4, §5, §6, §7

[13] = test system: Pseudomonas aeruginosa (F1629); test: as above; type: cell-based; conditions: HIA medium plate, 37° C., 18 hours, read-out: Minimum growth inhibitory concentration (MIC)
Description: as §1, §2, §3, §4, §5, §6, §7

[14] = test system: Pseudomonas aeruginosa (IFO-3901); test: as above; type: cell-based; conditions: IFO3901, HIA medium plate, 37° C., 18 hours, read-out: Minimum growth inhibitory concentration (MIC)
Description: as §1, §2, §3, §4, §5, §6, §7

[15] = test system: Pseudomonas aeruginosa (NCTC 7244); test: as above; type: cell-based; conditions: NCTC7244, HIA medium plate, 37° C., 18 hours, read-out: Minimum growth inhibitory concentration (MIC)
Description: as §1, §2, §3, §4, §5, §6, §7

[16] = test system: Pseudomonas aeruginosa (S-1); test: as above; type: cell-based; conditions: HIA medium plate, 37° C., 18 hours, read-out: Minimum growth inhibitory concentration (MIC)
Description: as §1, §2, §3, §4, §5, §6, §7

[17] = test system: Pseudomonas maltophilia (F-6257); test: as above; type: cell-based; conditions: Stenotrophomonas maltophilia; HIA medium plate, 37° C., 18 hours; read-out: Minimum growth inhibitory concentration (MIC)
Description: as §1, §2, §3, §4, §5, §6, §7

[18] = test system: Salmonella enteritidis (KB-21); test: as above; type: cell-based; conditions: Salmonella enterica, 18 h, read-out: Minimum growth inhibitory concentration (MIC)
Description: as §1, §2, §3, §4, §5, §6, §7

[19] = test system: Serratia marcescens (S-33); test: as above; type: cell-based; conditions: HIA medium plate, 37° C., 18 hours, read-out: Minimum growth inhibitory concentration (MIC)
Description: as §1, §2, §3, §4, §5, §6, §7

Shigella flexneri (K-A) = test: as above; type: cell-based; conditions: HIA medium plate, 37° C., 18 hours, read-out: Minimum growth inhibitory concentration (MIC)
Description: as §1, §2, §3, §4, §5, §6, §7

[20] = test system: Staphylococcus aureus (FDA 209P); test: as above; type: cell-based; conditions: FDA209P, 18 h, read-out: Minimum growth inhibitory concentration (MIC)
Description: as §1, §2, §3, §4, §5, §6, §7

[21] = test system: Staphylococcus aureus (Y-8); test: as above; type: cell-based; conditions: HIA medium plate, 37° C., 18 hours, read-out: Minimum growth inhibitory concentration (MIC)
Description: as §1, §2, §3, §4, §5, §6, §7

[22] = test system: Streptococcus faecalis (Hoshi); test: as above; type: cell-based; conditions: Enterococcus faecalis; HIA medium plate, 37° C., 18 hours; read-out: Minimum growth inhibitory concentration (MIC)
Description: as §1, §2, §3, §4, §5, §6, §7

[23] = test system: Pseudomonas aeruginosa (NCTC 7244); test: MIC in HIB medium by turbidity (Referential Example 2, Table 2); type: cell-based; conditions: NCTC7244, 18 h, 37° C.
Description: (§8) The compounds obtained in Synthesis Examples 1 to 4 were tested in the following manner.
(§9) A suspension of Pseudomonas aeruginosa (NCTC 7244) cultivated at 37° C. for 18 hours in a heart infusion broth medium (HIB medium) in a final amount of 10^5, 10^6 and 10^7 cells/ml in an HIB medium containing each of the test compounds which was obtained in the same way as in Referential Example 1 except that the maximum concentration of the test compound was 200 μg/ml. The bacterial strain was cultivated at 37° C. for 18 hours, and the turbidity of the culture broth was evaluated with the naked eye. The minimum concentration of the test compound at which no turbidity was noted was defined as MIC.

[24] = test system: Pseudomonas aeruginosa (NCTC 7244); test: Minimum bactericidal concentration (Referential Example 2, Table 2); type: cell-based; conditions: NCTC7244, 18 h, subculture on HIA medium
Description: as §8, §9
The growth of the bacterial strain was evaluated.

Pseudomonas aeruginosa = conditions: background art, in words; cited from earlier work

CC1(C)S[C@@H]2[C@H](NC(=O)C(C(=O)O)c3ccccc3)C(=O)N2[C@H]1C(=O)O (stereo partly drawn) [CB-PC, disodium-α-carboxybenzyl penicillin]
MIC [1]: 100 µg/mL
MIC [2]: 3.13 µg/mL
MIC [3]: 1.56 µg/mL
MIC [4]: > 100 µg/mL
MIC [5]: > 100 µg/mL
MIC (Escherichia coli (26RO3)): 3.13 µg/mL
MIC (Escherichia coli (K-12)): 6.25 µg/mL
MIC (Escherichia coli (NIHJ)): 6.25 µg/mL
MIC [6]: 50 µg/mL
MIC [7]: > 100 µg/mL
MIC [8]: 25 µg/mL
MIC [9]: 100 µg/mL
MIC (Proteus morganii (C-39)): 6.25 µg/mL
MIC (Proteus rettgeri (T-2)): 3.13 µg/mL
MIC (Proteus vulgaris (OX-19)): 6.25 µg/mL
MIC [10]: 25 µg/mL
MIC [11]: > 100 µg/mL
MIC [12]: > 100 µg/mL
MIC [13]: > 100 µg/mL
MIC [14]: 100 µg/mL
MIC [15]: 100 µg/mL
MIC [16]: 25 µg/mL
MIC [17]: 25 µg/mL
MIC [18]: 1.56 µg/mL
MIC [19]: 6.25 µg/mL
MIC (Shigella flexneri (K-A)): 1.56 µg/mL
MIC [20]: 1.56 µg/mL
MIC [21]: 12.5 µg/mL
MIC [22]: 50 µg/mL
MIC ([23]; 10^5 cells/ml inoculated): 50 µg/mL
MIC ([23]; 10^6 cells/ml inoculated): 100 µg/mL
MIC ([23]; 10^7 cells/ml inoculated): 200 µg/mL
MBC ([24]; 10^5 cells/ml inoculated): 100 µg/mL
MBC ([24]; 10^6 cells/ml inoculated): 100 µg/mL
MBC ([24]; 10^7 cells/ml inoculated): > 200 µg/mL
activity on Pseudomonas aeruginosa (Pseudomonas aeruginosa): low activity on Pseudomonas aeruginosa
effectiveness for infections caused by Pseudomonas aeruginosa (Pseudomonas aeruginosa): ineffective for Pseudomonas aeruginosa-induced infections of difficultly curable nature
